Values quoted from earlier work as cited in patent publication EP3663750B1, “SCAFFOLDED NUCLEIC ACID POLYMER PARTICLES AND METHODS OF MAKING AND USING” (Life Technologies Corporation, priority 2009, dated 2010).

Details: Oil Soluble Azo Initiator Compounds; temperature at which the initiator has a half-life of 10h

| Compound | 10 hour half-life decomposition temperature |
| --- | --- |
| C=CCNC(=O)C(C)(C)N=NC(C)(C)C(=O)NCC=C | 96 °C |
| CCCCNC(=O)C(C)(C)N=NC(C)(C)C(=O)NCCCC | 110 °C |
| CCC(C)(C#N)N=NC(C)(C#N)CC (centres unmarked) | 67 °C |
| N#CC1(N=NC2(C#N)CCCCC2)CCCCC1 | 88 °C |
| CC(C)CC(C)(C#N)N=NC(C)(C#N)CC(C)C (centres unmarked) | 51 °C |
| CC(C)(N=NC(C)(C)C(=O)NC1CCCCC1)C(=O)NC1CCCCC1 | 111 °C |

Same assay, conditions: Water Soluble Azo Initiator Compounds; temperature at which the initiator has a half-life of 10h

| 10 hour half-life decomposition temperature | Compound |
| --- | --- |
| 87 °C | CC(C)(N=NC(C)(C)C(=O)NCCO)C(=O)NCCO |
| 67 °C | CC(C)(N=NC(C)(C)C(=N)N1CCCC1)C(=N)N1CCCC1 |
| 60 °C | CC(C)(N=NC(C)(C)C1=NCCN1CCO)C1=NCCN1CCO |

Same assay, conditions: buffer

| Compound | 10 hour half-life decomposition temperature |
| --- | --- |
| CC(C)(N=NC(C)(C)C1=NCCN1)C1=NCCN1 [drawing 1] | 44 °C |
| CC(C)(N=NC(C)(C)C1=NCCN1)C1=NCCN1 [drawing 6] | 61 °C |
